This assay relates to T. cruzi Tulahuen in NIH-3T3, beta-gal fluorescence, 4 d. Description: T. cruzi intracellular growth inhibition, cell-based (AID 1159559).

The source made the active and inactive calls.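 The calls were made as follows: active = compounds whose IC50 against parasite growth in infected mouse cells is below 50000 nM; inactive = the rest.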

As usually defined, the IC50 is the concentration that gives 50% inhibition.

Regarding `O=C(Nc1nc2ccccc2[nH]1)c1c(O)c2cccc3c2n(c1=O)CC3`, the IC50 was 20000 nM.
The same measure for `O=C(NCCc1csc(-c2ccc(F)cc2)n1)c1ccco1`: 2000 nM; for `COc1cc(-c2nc(N3CCOCC3)sc2-c2ccnc(NC3CCOCC3)n2)ccc1Cl`: 250 nM; for `O=C(NCCc1ccccn1)C(c1cn[nH]c1)N1CCN(c2ccc(Cl)c(Cl)c2)CC1` (stereo not drawn): 100 nM.
Consider `Cc1nn2c(NCCCO)c3c(nc2c1-c1cccs1)CCC3`, for which the IC50 is 16000 nM.
Regarding `O=c1cc(NCCCNC2CCOc3c(I)cc(Cl)cc32)[nH]c2ccccc12` (stereo not drawn), the IC50 is 790 nM.
Turning to `CC(Cn1ccnc1)NC(=O)C1CC1c1cccc(Cl)c1Cl` (stereo not drawn), the IC50 was 130 nM.
Turning to `O=C1NCc2cccc(Nc3nc(NC4CCC(O)CC4)ncc3Br)c21` (stereo not drawn), the IC50 is 630 nM.
In the case of `NC(=O)c1ccc(-c2cccc(OCCN3CCN(C4CCCCC4)CC3)c2)cc1`, the IC50 is 1600 nM.
As for `O=C1OCc2ccc(Nc3nccc(-c4cnn5ncccc45)n3)cc21`, the IC50 was 25 nM.
The same measure for `Cc1nn(-c2nc(N)nc(-c3ccccn3)n2)c(N)c1-c1ccccc1`: 4000 nM; for `CN(Cc1nc2ccc(C(=O)NCC3CCCCC3)cc2[nH]1)C1CCCc2cccnc21` (stereo not drawn): 500 nM.
Turning to `CN(C)S(=O)(=O)c1ccc(-c2cnc(N)c(-c3nc4ccc(F)cc4[nH]3)c2)cc1`, the IC50 is 1300 nM.
The same measure for `O=C(Nc1cccc(Cl)c1)N1CCCCC1c1cccnc1` (stereo not drawn): 160 nM.
Take `CCc1nn(-c2ncc(F)c(NC(C)C)n2)c(N)c1C1CCCCC1`: the IC50 is 3200 nM.
`Cc1ccc(Nc2nc(-c3ccccn3)cc(N3CCCC(O)C3)n2)cc1` (stereo not drawn): the IC50 was 500 nM.
For the compound `Cc1[nH]c2ccccc2c(=O)c1Cc1c(C)[nH]c2ccccc2c1=O`, the IC50 is 2500 nM.
Take `Oc1cccnc1-c1n[nH]c(Cc2ccccc2)n1`: the IC50 was 6300 nM.
As to `COc1ccc(C2C3CCCCC3(O)CCN2CC(=O)Nc2ccc(Cl)cc2Cl)cc1` (stereo not drawn), the IC50 was 2500 nM.
The same measure for `Cc1nc(N2CC(C)OC(C)C2)sc1C(=O)Nc1ccc2c(c1)OCO2` (stereo not drawn): 2000 nM.
On to `O=C(NCC1CCCCC1)c1cnns1`, for which the IC50 was 2500 nM.
Consider `Cc1cc(C#N)c([N+](=O)[O-])cc1Br`, for which the IC50 was 200 nM.
The same measure for `COc1cc(C(C)C)c(S(C)(=O)=O)cc1C(=O)N1CCN(c2ccccc2Cl)CC1`: 1600 nM.
For `c1ccc(-c2nc(NC3CCCC3)c3ccccc3n2)nc1`, the IC50 is 2000 nM.
For `Clc1cc(Br)ccc1OCCCCn1ccnc1`, the IC50 was 630 nM.
The same measure for `O=C(c1ccc(O)c(Cl)c1)N1CCN(c2cnccn2)CC1`: > 50000 nM (inactive); for `Cc1nc2c(-c3ncn[nH]3)cc(NC(=O)Cc3ccccc3)cn2c1C`: 1000 nM.
In the case of `COC(=O)c1ccc(-c2cnc3ccc(NCc4ccccn4)nn23)cc1`, the IC50 was 7900 nM.
Consider `Cc1sc(C)c(C(F)(F)F)c1CNCCCNc1cc(=O)c2ccccc2[nH]1`, for which the IC50 is 790 nM.
`CCc1cccc(CC)c1-n1c(SCC(=O)NC(=O)NCc2ccco2)nnc1-c1cccnc1`: the IC50 is 13000 nM.
The same measure for `N#Cc1cc(N2CCCC2=O)ccc1Sc1ccccc1CO`: 250 nM.
Regarding `C=CCN(Cc1cccs1)C(=O)CSc1nnc(-c2ccc3c(c2)OCO3)o1`, the IC50 is 6300 nM.
As for `COc1cccc2sc(CN(C)C(=O)C3CNCCN3c3ccc(F)cc3)c(C)c12` (stereo not drawn), the IC50 is 400 nM.
`O=C(Nc1cccc(S(=O)(=O)Nc2ccc(Br)cc2)c1)c1ccc([N+](=O)[O-])s1`: the IC50 was 100 nM.
For the compound `CN(C)S(=O)(=O)c1ccc(Cl)c(C(=O)Nc2nc(-c3ccccn3)cs2)c1`, the IC50 is 1600 nM.
Regarding `O=S(=O)(NCC(c1cccnc1)N1CCN(c2ccccc2F)CC1)c1ccc(F)cc1` (stereo not drawn), the IC50 was 500 nM.
For `O=C(CSc1nnc(-c2ccc3c(c2)OCO3)o1)N(Cc1ccco1)CC(F)(F)F`, the IC50 is 10000 nM.
Take `Nc1cc(-c2ccc3ncnc(N4CCOCC4)c3c2)cnc1N`: the IC50 was 1600 nM.
The same measure for `Cc1ccc(S(C)(=O)=O)cc1Nc1nccc(-c2sc(N)nc2-c2ccccc2)n1`: 130 nM; for `CC(C)C[C@H](NC(=O)c1csc(-c2cccs2)n1)C(=O)NC1(C#N)CC1`: 25000 nM; for `C=CCOCC1Cn2nc([N+](=O)[O-])nc2O1` (stereo not drawn): 500 nM.
Consider `CCOc1ccc(CN(C)Cc2nc(N)nc(Nc3ccc(C)cc3)n2)cc1`, for which the concentration for half-maximal inhibition (IC50) is 6300 nM.
The same measure for `COc1cc(NC(=O)Nc2cccc(CNC(=O)OC3CCCCC3)c2)ccc1-c1cnco1`: 1000 nM; for `NC(=O)c1ncc(N[C@@H]2CCCNC2)nc1Nc1cccc(Cl)c1`: 320 nM; for `Cc1nnnn1-c1cccc(C(=O)N2CCC[C@@]3(C)c4ncncc4CCC23)c1` (stereo partly drawn): 630 nM.
As to `Cc1cc2cncn2c(C2CCCCN2C(=O)c2cccs2)n1` (stereo not drawn), the IC50 is 25 nM.
On to `CS(=O)(=O)c1ccc(CC(=O)Nc2nc(-c3ccc(Cl)s3)cs2)cc1`, for which the IC50 was 400 nM.
Regarding `COc1ccc(CN2C(=O)C(O)(CC(=O)c3ccncc3)c3cc(Br)ccc32)cc1OC` (stereo not drawn), the IC50 is 2500 nM.
For `CNC(=O)Oc1ccc(C(=O)NCc2ccccc2)cc1OC(=O)NC`, the IC50 is 32000 nM.
Turning to `Fc1ccccc1N1C[C@H]2CCN(c3cccnc3)C[C@H]2C1`, the IC50 is 200 nM.
In the case of `Nc1nonc1-c1nc2cncc(C(=O)N3CC[C@H](N)C3)c2n1CC1CC1`, the IC50 was > 50000 nM (inactive).
Take `CCCN1CCN(Cc2ccc(S(=O)(=O)Nc3cccc(C)c3)cc2)CC1`: the IC50 is 790 nM.
As to `NS(=O)(=O)c1ccc(Nc2nccc(-c3cnn4ncccc34)n2)cc1`, the IC50 is 2500 nM.
`O=C(NCc1nnc2n1CCCCC2)c1ccc(-c2ccc(F)cc2)o1`: the IC50 was 1300 nM.
On to `Clc1ccc(CN2CCN(C3=NCCN3)CC2)cc1Cl`, for which the IC50 is 1300 nM.
The same measure for `Cc1ccc(S(=O)(=O)Nc2ccc(CN3CCN(C(=O)c4cccc(C)c4)CC3)cc2)cc1`: 500 nM.
Take `CC(C)c1nn(-c2nc(N)nc(-c3ccccn3)n2)c(N)c1C1CCCCC1`: the IC50 is 2000 nM.
Consider `CC(c1cc(Cl)cc(Cl)c1)N(C)c1ncc2c(N)nc(N)nc2n1` (stereo not drawn), for which the IC50 was 63 nM.
Regarding `CCCN(Cc1ccc(OC)c(OC)c1)Cc1cc(=O)c2c(C)cc(C)cc2[nH]1`, the IC50 is 2000 nM.
In the case of `O=c1[nH]c(NCCCNCc2cc(Br)cc(Br)c2)nc2ccsc12`, the IC50 is 630 nM.
Take `N#Cc1ccccc1S(=O)(=O)N1CCN(C(=O)CNC(=O)c2ccc3c(c2)OCO3)CC1`: the IC50 was 16000 nM.
For `Cc1nc2c(-c3nc(-c4ccc(N)cc4)n[nH]3)cccn2c1C`, the IC50 was 6300 nM.
The same measure for `Cc1cc(N(C)C)nc2ccc(Cc3cnc(N)nc3N)cc12`: 1300 nM; for `NC(=O)c1cc(F)ccc1Nc1nc(NC2CCC(O)CC2)ncc1Cl` (stereo not drawn): 4000 nM; for `O=C(Nc1ccc(Br)c(Cl)c1)Nc1ccc2c(c1)OCO2`: 2500 nM.
Turning to `CC(C)(C)Nc1nc(-c2ccccn2)nc2ccccc12`, the IC50 was 1300 nM.
The same measure for `Cc1cccnc1NC(=O)c1cccc(OCc2c(C)noc2C)c1`: > 50000 nM (inactive); for `NC(=O)c1ccsc1NC(=O)c1ccc([N+](=O)[O-])s1`: 79 nM; for `COCCn1cnc2cc(NC(=O)C3CCCCC3)cc(C(=O)N3CCc4sccc4C3)c21`: 20000 nM.
For the compound `O=C(Nc1nc(-c2ccccn2)cs1)c1ccccc1-n1cnnn1`, the IC50 was 3200 nM.
For `CCN(CC)S(=O)(=O)c1ccc(C)c(NC(=O)c2cc(Cl)c3c(c2)OCO3)c1`, the IC50 is 6300 nM.
Regarding `O=C1CCCCCC1(Cc1cnc[nH]1)c1ccc(Cl)cc1Cl` (stereo not drawn), the IC50 was 250 nM.
For `COc1ccc(CNc2nsc3ccccc23)cc1OC`, the IC50 is 6300 nM.
Consider `Cc1cc(C)nc(N2CCC(N(Cc3cccnc3)C(=O)c3cccc(C#N)c3)CC2)n1`, for which the IC50 was 320 nM.
With `COc1ccc(CNc2cc(C3CC3)nc(-c3nccn3C)n2)cc1`, the IC50 was 1000 nM.
Consider `CC(C)(C)C(=O)NCCc1csc(-c2ccc(F)cc2)n1`, for which the IC50 was 3200 nM.
In the case of `COc1ccc2c(Cl)c(C(=O)N3CCC3)sc2c1Cl`, the IC50 is 400 nM.
The same measure for `C[C@@H](Oc1cc(-n2cnc3ccc(C(O)CO)cc32)sc1C(N)=O)c1ccccc1C(F)(F)F` (stereo partly drawn): 5000 nM.
The same measure for `CN1CCCN(C(=O)c2ccc(N3CCCC3)cc2Cl)CC1`: 790 nM; for `Cc1cc2nc(N3CC[C@H]3C(N)=O)nc(Nc3cc(C4CC4)[nH]n3)c2s1`: 6300 nM; for `O=c1cc(CSc2ccc(Cl)cc2)nc(-c2ccccn2)[nH]1`: 1000 nM.
Regarding `CC(C)Nc1nccc(-c2c(-c3ccc(F)cc3)ncn2C2CCOCC2)n1`, the IC50 is 250 nM.
As to `Cc1nc(-c2nc(NCc3ccc(Cl)cc3)c3cccnc3c2O)n[nH]1`, the IC50 is 630 nM.
As for `Cc1c(Nc2cc(C3CC3)[nH]n2)ccc(C#N)c1Cl`, the IC50 was 2500 nM.
The same measure for `CCn1c(NC(=O)Cc2ccc(F)cc2)nc2ccccc21`: 5000 nM; for `Cn1nc(C(=O)N2CCc3ccccc32)c2c1CCS(=O)(=O)C2`: 7900 nM.
For the compound `CCS(=O)(=O)c1cccc(C(=O)Nc2nc(-c3ccccn3)cs2)c1`, the IC50 is 1600 nM.
The same measure for `Cc1nn(-c2ccccc2)nc1CNC(=O)CN(Cc1ccccn1)Cc1ccccn1`: 4000 nM.
With `COc1ccc(C(=O)NC2CCN(CCn3c(=O)ccc4ncc(F)cc43)CC2)cc1Cl`, the IC50 is 500 nM.
Regarding `O=c1ccc2ccc(F)c3c2n1C[C@H]3CN1CCC(NCc2cc3ccccc3o2)CC1`, the IC50 was 400 nM.
For the compound `CC(=O)Nc1ccc(Nc2nccc(-c3cnn4ncccc34)n2)cc1C(F)(F)F`, the IC50 is 50 nM.
For `COc1ccc(S(=O)(=O)NCc2ccc(-c3ccc(CN(C)CCO)cc3)cc2)cc1`, the IC50 was 40 nM.
The same measure for `CN(Cc1nc2ccccc2s1)C(=O)C=Cc1cc2ccccc2o1`: 630 nM.
On to `CCCn1c(NC(=O)Cc2ccc(Cl)cc2)nc2ccccc21`, for which the IC50 was 630 nM.
As for `COc1cc(OC)cc(C(=O)N[C@@H](CC(C)C)C(=O)NC2(C#N)CC2)c1`, the IC50 is > 50000 nM (inactive).
For the compound `CCc1cccc(-n2nc(OCC(=O)NC3CCCC3)c3cccnc32)c1`, the IC50 is > 50000 nM (inactive).
The same measure for `O=C(Nc1ccc(Br)cn1)c1ccc(Cn2cnc([N+](=O)[O-])n2)cc1`: 160 nM.
For `COc1ccc(Nc2nc(-c3ccccn3)cc(N3CCCC(O)C3)n2)cc1` (stereo not drawn), the IC50 is 630 nM.

Values taken from PubChem BioAssay AID1159559 (GlaxoSmithKline (GSK), 2015).
